Reference: ChEMBL document CHEMBL5356973 (J Med Chem, 2023)
Activity calls are given as the source filed them. The calls are words filed in the database; no cut-off is given here.

Experiments:
Mu-type opioid receptor [1] = biological target: T1, Mu-type opioid receptor (Homo sapiens, UniProt P35372); test: Agonist activity at MOR (unknown origin) transfected in CHO cells co-expressing Galphaq15 assessed as increase in calcium mobilization by measuring maximal efficacy by Fluo-4AM dye based assay relative to control; type: functional, cell-based; details: filed as agonist
T1 sequence (P35372 whole entry): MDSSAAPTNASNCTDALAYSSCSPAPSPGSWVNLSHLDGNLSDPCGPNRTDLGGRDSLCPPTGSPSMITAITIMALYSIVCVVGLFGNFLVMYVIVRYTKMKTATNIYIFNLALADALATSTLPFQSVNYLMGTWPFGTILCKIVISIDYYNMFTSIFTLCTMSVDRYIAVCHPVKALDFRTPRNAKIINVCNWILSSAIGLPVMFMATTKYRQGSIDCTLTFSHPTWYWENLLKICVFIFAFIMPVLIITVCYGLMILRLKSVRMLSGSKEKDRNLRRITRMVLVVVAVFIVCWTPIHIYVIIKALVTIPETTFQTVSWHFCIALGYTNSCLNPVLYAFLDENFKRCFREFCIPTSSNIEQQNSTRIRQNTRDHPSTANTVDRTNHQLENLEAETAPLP

Mus musculus [2] = test: Antinociceptive activity in Kunming mouse assessed as changes in tail flick latency by measuring maximal possible effect at 26.7 nmol/kg, sc measured after 30 mins by tail-flick test; type: functional; details: 0.5 h
[3] = biological target: T2, Kappa-type opioid receptor (Homo sapiens, UniProt P41145); test: Agonist activity at KOR (unknown origin) transfected in CHO cells co-expressing Galphaq15 assessed as increase in calcium mobilization by measuring maximal efficacy by Fluo-4AM dye based assay relative to control; type: functional, cell-based; details: filed as agonist
T2 sequence (P41145 whole entry): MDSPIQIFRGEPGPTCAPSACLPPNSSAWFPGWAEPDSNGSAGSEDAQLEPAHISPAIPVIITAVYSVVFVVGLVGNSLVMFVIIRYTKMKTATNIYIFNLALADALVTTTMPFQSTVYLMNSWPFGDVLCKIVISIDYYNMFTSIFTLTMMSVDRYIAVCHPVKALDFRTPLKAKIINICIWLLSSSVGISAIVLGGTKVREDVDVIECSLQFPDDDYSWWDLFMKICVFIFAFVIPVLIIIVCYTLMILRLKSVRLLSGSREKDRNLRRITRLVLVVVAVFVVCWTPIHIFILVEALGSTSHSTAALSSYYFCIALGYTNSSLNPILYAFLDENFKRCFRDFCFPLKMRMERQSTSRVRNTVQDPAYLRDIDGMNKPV

Mus musculus [4] = test: Antinociceptive activity in Kunming mouse assessed as changes in tail flick latency by measuring maximal possible effect at 26.7 nmol/kg, sc measured after 240 mins by tail-flick test; type: functional; details: 4 h
[5] = Metabolic stability in mouse plasma assessed as degradation half life at 10 mM measured upto 480 mins by RP-HPLC analysis; type: ADME, cell-free
Mu-type opioid receptor [6] = biological target: T1, Mu-type opioid receptor; test: Agonist activity at MOR (unknown origin) transfected in CHO cells co-expressing Galphaq15 assessed as increase in calcium mobilization by Fluo-4AM dye based assay; type: functional, cell-based
Mus musculus [7] = test: Antinociceptive activity in Kunming mouse assessed as changes in tail flick latency at 26.7 nmol/kg, sc pretreated with naloxone methiodide at 5 nmol, icv for 10 mins followed by compound addition and measured for 360 mins by tail-flick test; type: functional, organism-based
[8] = biological target: T3, Delta-type opioid receptor (Homo sapiens, UniProt P41143); test: Agonist activity at DOR (unknown origin) transfected in CHO cells co-expressing Galphaq15 assessed as increase in calcium mobilization by measuring maximal efficacy by Fluo-4AM dye based assay relative to control; type: functional, cell-based; details: filed as agonist
T3 sequence (P41143 whole entry): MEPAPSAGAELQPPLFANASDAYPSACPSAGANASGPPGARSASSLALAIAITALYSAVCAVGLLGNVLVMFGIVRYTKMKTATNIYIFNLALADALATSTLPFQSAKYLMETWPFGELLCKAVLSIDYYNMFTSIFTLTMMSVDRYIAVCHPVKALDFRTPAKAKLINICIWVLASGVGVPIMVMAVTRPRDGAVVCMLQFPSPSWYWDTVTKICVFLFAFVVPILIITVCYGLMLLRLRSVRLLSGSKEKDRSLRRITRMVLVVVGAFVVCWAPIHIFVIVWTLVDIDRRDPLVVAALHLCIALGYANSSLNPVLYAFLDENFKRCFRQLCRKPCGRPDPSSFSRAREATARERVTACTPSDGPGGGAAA

[9] = Agonist activity at NPFF1R (unknown origin) transfected in CHO cells co-expressing Galphaq15 assessed as increase in calcium mobilization by measuring maximal efficacy by Fluo-4AM dye based assay relative to control; type: functional, cell-based; details: Homo sapiens, filed as agonist
[10] = biological target: T4, Neuropeptide FF receptor 2 (Homo sapiens, UniProt Q9Y5X5); test: Agonist activity at NPFF2R (unknown origin) transfected in HEK293 cells co-expressing Galphaq15 assessed as increase in calcium mobilization by measuring maximal efficacy by Fluo-4AM dye based assay relative to control; type: functional, cell-based; details: filed as agonist
T4 sequence (Q9Y5X5 whole entry): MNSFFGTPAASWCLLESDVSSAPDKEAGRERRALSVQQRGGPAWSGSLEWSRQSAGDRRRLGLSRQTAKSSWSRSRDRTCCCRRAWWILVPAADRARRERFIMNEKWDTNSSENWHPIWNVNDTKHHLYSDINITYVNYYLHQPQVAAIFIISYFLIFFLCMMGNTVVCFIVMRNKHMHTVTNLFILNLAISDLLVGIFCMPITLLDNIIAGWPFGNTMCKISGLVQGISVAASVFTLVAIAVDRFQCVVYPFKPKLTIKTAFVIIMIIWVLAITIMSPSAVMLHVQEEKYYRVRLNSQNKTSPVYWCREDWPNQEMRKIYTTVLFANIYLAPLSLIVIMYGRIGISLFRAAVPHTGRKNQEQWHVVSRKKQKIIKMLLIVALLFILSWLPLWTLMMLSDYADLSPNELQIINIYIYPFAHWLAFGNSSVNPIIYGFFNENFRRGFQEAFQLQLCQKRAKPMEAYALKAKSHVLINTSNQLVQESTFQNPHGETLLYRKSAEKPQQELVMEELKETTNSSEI

Mus musculus [11] = test: Antinociceptive activity in Kunming mouse assessed as changes in tail flick latency by measuring time duration of antinociceptive effect at 26.7 nmol/kg, sc by tail-flick test; type: functional
[12] = biological target: T3, Delta-type opioid receptor; test: Agonist activity at DOR (unknown origin) transfected in CHO cells co-expressing Galphaq15 assessed as increase in calcium mobilization by Fluo-4AM dye based assay; type: functional, cell-based
Mus musculus [13] = test: Antinociceptive activity in Kunming mouse assessed as changes in tail flick latency by measuring maximal possible effect at 26.7 nmol/kg, sc measured after 60 mins by tail-flick test; type: functional; details: 1 h
[14] = biological target: T4, Neuropeptide FF receptor 2; test: Agonist activity at NPFF2R (unknown origin) transfected in HEK293 cells co-expressing Galphaq15 assessed as increase in calcium mobilization by Fluo-4AM dye based assay; type: functional, cell-based
[15] = biological target: T2, Kappa-type opioid receptor; test: Agonist activity at KOR (unknown origin) transfected in CHO cells co-expressing Galphaq15 assessed as increase in calcium mobilization by Fluo-4AM dye based assay; type: functional, cell-based
Mus musculus [16] = test: Antinociceptive activity in Kunming mouse assessed as changes in tail flick latency by measuring maximal possible effect at 26.7 nmol/kg, sc measured after 120 mins by tail-flick test; type: functional; details: 2 h
[17] = Metabolic stability in mouse brain homogenate assessed as degradation half life at 10 mM measured upto 480 mins by RP-HPLC analysis; type: ADME, tissue-based
Mus musculus [18] = test: Antinociceptive activity in Kunming mouse assessed as changes in tail flick latency by measuring maximal possible effect at 26.7 nmol/kg, sc measured after 20 mins by tail-flick test; type: functional
[19] = Induction of antinociceptive tolerance in Kunming mouse assessed as decrease in tail flick latency at 0.88 nmol/kg, sc administered once daily for 8 days and measured once daily by tail-flick test; type: toxicity, organism-based; details: in vivo, 192 h, time 8 day
Mus musculus [20] = test: Antinociceptive activity in Kunming mouse assessed as changes in tail flick latency at 0.009 nmol/kg, sc pretreated with 1-adamantanecarbonyl-RF-NH2 at 10 nmol, icv for 5 mins followed by compound addition and measured for 360 mins by tail-flick test; type: functional, organism-based
[21] = Toxicity in sc dosed Kunming mouse assessed as effect on naloxone-induced jumping response at 88 nmol/kg, sc administered every 8 hrs for 3 days followed by naloxone administration at 2 hrs post last dose and measured immediately by Nal-precipitated withdraw test; type: organism-based; details: in vivo, 74 h
Mus musculus [22] = test: Antinociceptive activity in Kunming mouse assessed as changes in tail flick latency by measuring maximal possible effect at 0.88 nmol/kg, sc measured after 240 mins by tail-flick test; type: functional; details: 4 h
Mus musculus [23] = test: Antinociceptive activity in Kunming mouse assessed as changes in tail flick latency by measuring time duration of action at 1 to 10 pmol, icv measured for 360 mins by tail-flick test; type: functional; details: dose 1-10 pmol, 6 h
Mus musculus [24] = test: Antinociceptive activity in Kunming mouse assessed as changes in tail flick latency by measuring maximal possible effect at 0.88 nmol/kg, sc measured after 20 mins by tail-flick test; type: functional
Mus musculus [25] = test: Antinociceptive activity in icv dosed Kunming mouse assessed as changes in tail flick latency measured for 360 mins by tail-flick test; type: functional
Mus musculus [26] = test: Antinociceptive activity in sc dosed Kunming mouse assessed as changes in tail flick latency measured after 10 to 360 mins by tail-flick test; type: functional; details: time 10-360 min
Mus musculus [27] = test: Antinociceptive activity in Kunming mouse assessed as changes in tail flick latency by measuring maximal possible effect at 0.88 nmol/kg, sc measured after 30 mins by tail-flick test; type: functional; details: 0.5 h
Mus musculus [28] = test: Antinociceptive activity in po dosed Kunming mouse assessed as changes in tail flick latency measured for 360 mins by tail-flick test; type: functional
[29] = Toxicity in Kunming mouse assessed as effect on locomotor activity at 88 nmol/kg, sc measured after 20 to 180 mins by open field test; type: organism-based; details: in vivo, time 20-180 min
[30] = Toxicity in sc dosed 16 hrs fasted Kunming mouse assessed as constipation by measuring inhibition of gastrointestinal transit administered for 15 mins followed by charcoal meal and measured after 30 mins; type: organism-based; details: in vivo, 0.75 h, time 45 min
[31] = Toxicity in Kunming mouse assessed as reduction in respiration frequency at 88 nmol/kg, sc measured upto 100 mins by whole-body plethysmography; type: organism-based; details: in vivo, 1.667 h
Mus musculus [32] = test: Antinociceptive activity in Kunming mouse assessed as changes in tail flick latency by measuring maximal possible effect at 0.88 nmol/kg, sc measured after 60 mins by tail-flick test; type: functional; details: 1 h
[33] = Toxicity in Kunming mouse assessed as effect on motor coordination at 88 nmol/kg, sc measured after 15 to 45 mins by rotarod test; type: organism-based; details: in vivo, time 15-45 min
Mus musculus [34] = test: Antinociceptive activity in Kunming mouse assessed as changes in tail flick latency at 0.88 nmol/kg, sc pretreated with naltrindole at 10 nmol, icv for 10 mins followed by compound addition and measured for 360 mins by tail-flick test; type: functional, organism-based
[35] = Toxicity in Kunming mouse assessed as addiction behavior at 88 nmol/kg, sc administered for 3 days starting from day 2 and measured on day 5 by conditioned place preference test; type: organism-based; details: in vivo, 96 h, time 4 day
Mus musculus [36] = test: Antinociceptive activity in Kunming mouse assessed as changes in tail flick latency at 0.88 nmol/kg, sc pretreated with naloxone methiodide at 5 nmol, icv for 10 mins followed by compound addition and measured for 360 mins by tail-flick test; type: functional, organism-based
Mus musculus [37] = test: Antinociceptive activity in Kunming mouse assessed as changes in tail flick latency at 0.88 nmol/kg, sc pretreated with beta-funaltrexamine at 10 nmol, icv for 4 hrs followed by compound addition and measured for 360 mins by tail-flick test; type: functional, organism-based
Mus musculus [38] = test: Antinociceptive activity in Kunming mouse assessed as changes in tail flick latency by measuring time duration of antinociceptive effect at 0.88 nmol/kg, sc by tail-flick test; type: functional
Mus musculus [39] = test: Antinociceptive activity in Kunming mouse assessed as changes in tail flick latency by measuring maximal possible effect at 0.88 nmol/kg, sc measured after 120 mins by tail-flick test; type: functional; details: 2 h
Mus musculus [40] = test: Antinociceptive activity in Kunming mouse assessed as changes in tail flick latency at 0.88 nmol/kg, sc pretreated with nor-binaltorphimine at 10 nmol, icv for 30 mins followed by compound addition and measured for 360 mins by tail-flick test; type: functional, organism-based
Mus musculus [41] = test: Antinociceptive activity in Kunming mouse assessed as changes in tail flick latency by measuring time duration of action at 0.88 to 8.82 nmol/kg, po measured for 360 mins by tail-flick test; type: functional; details: dose 0.88-8.82 nmol/kg, 6 h

With `CN1C(=O)CNC(=O)[C@H](N[C@@H](Cc2ccc(O)cc2)C(=O)O)CCC/C=C/C[C@@H](C(=O)N2CCC[C@H]2C(=O)N[C@@H](CCC(N)=O)C(=O)N[C@@H](CCCNC(=N)N)C(=O)N[C@@H](Cc2ccccc2)C(N)=O)NC(=O)[C@@H]1Cc1ccccc1` as the compound, how does the Emax (Mu-type opioid receptor [1]) read?
The Emax was 120%.

What about the MPE (Mus musculus [2]) of the same compound?
Its MPE is 96%.

And the Emax [3]?
The Emax was 98.3%.

What about the MPE (Mus musculus [4]) of the same compound?
The MPE was 44.7%.

And the half-life at 10000 µM [5]?
Its half-life at 10000 µM is 1.01 h.

And the EC50 (Mu-type opioid receptor [6])?
Its EC50 is 38.9 nM.

And the Activity (Mus musculus [7])?
Its Activity is “inactive”.

What about the Emax [8] of the same compound?
Its Emax is 93%.

What about the Emax [9] of the same compound?
The Emax was 129%.

And the Emax [10]?
The Emax was 77.9%.

What about the Time (Mus musculus [11]) of the same compound?
Its Time is 360 min.

And the EC50 [12]?
The EC50 was 27.7 nM.

What about the MPE (Mus musculus [13]) of the same compound?
The MPE was 81.9%.

And the EC50 [14]?
Its EC50 is 52.3 nM.

What about the EC50 [15] of the same compound?
The EC50 was 124 nM.

And the MPE (Mus musculus [16])?
The MPE was 65.5%.

And the half-life at 10000 µM [17]?
Its half-life at 10000 µM is 1.52 h.

And the MPE (Mus musculus [18])?
Its MPE is 94.2%.

With `CN1C(=O)CNC(=O)[C@H](N[C@@H](Cc2ccc(O)cc2)C(=O)O)CCCC/C=C/C[C@@H](C(=O)N2CCC[C@H]2C(=O)N[C@@H](CCC(N)=O)C(=O)N[C@@H](CCCNC(=N)N)C(=O)N[C@@H](Cc2ccccc2)C(N)=O)NC(=O)[C@@H]1Cc1ccccc1` as the compound, how does the Emax (Mu-type opioid receptor [1]) read?
Its Emax is 95%.

What about the Activity [19] of the same compound?
Its Activity is “Non-Toxic”.

What about the Activity (Mus musculus [20]) of the same compound?
Its Activity is “Active”.

And the Activity [21]?
The Activity was “Non-Toxic”.

What about the MPE (Mus musculus [22]) of the same compound?
Its MPE is 43.5%.

What about the Emax [3] of the same compound?
The Emax was 106%.

And the Time (Mus musculus [23])?
The Time was “<=360 min”.

And the MPE (Mus musculus [24])?
The MPE was 89.9%.

And the half-life at 10000 µM [5]?
The half-life at 10000 µM was 0.63 h.

And the Activity (Mus musculus [25])?
The Activity was “Dose-Dependent Effect”.

What about the ED50 (Mus musculus [25]; 6 h) of the same compound?
The ED50 was 1.82 pmol.

What about the Activity (Mus musculus [26]) of the same compound?
The Activity was “Dose-Dependent Effect”.

What about the ED50 (Mus musculus [26]) of the same compound?
Its ED50 is 2e-05 µmol/kg.

What about the MPE (Mus musculus [27]) of the same compound?
Its MPE is 77.2%.

What about the EC50 (Mu-type opioid receptor [6]) of the same compound?
The EC50 was 15.9 nM.

And the Emax [8]?
Its Emax is 77.3%.

And the Emax [9]?
Its Emax is 88.1%.

And the Activity (Mus musculus [28])?
Its Activity is “Dose-Dependent Effect”.

What about the ED50 (Mus musculus [28]; 6 h) of the same compound?
Its ED50 is 0.00195 µmol/kg.

And the Activity [29]?
The Activity was “Non-Toxic”.

What about the ED50 [30] of the same compound?
The ED50 was 95.4 nmol/kg.

What about the Activity [31] of the same compound?
Its Activity is “Non-Toxic”.

And the MPE (Mus musculus [32])?
The MPE was 80.5%.

And the Emax [10]?
Its Emax is 119%.

And the EC50 [12]?
Its EC50 is 228 nM.

What about the Activity [33] of the same compound?
Its Activity is “Non-Toxic”.

What about the Activity (Mus musculus [34]) of the same compound?
Its Activity is “Active”.

And the Activity [35]?
The Activity was “Non-Toxic”.

What about the EC50 [14] of the same compound?
The EC50 was 33.1 nM.

What about the Activity (Mus musculus [36]) of the same compound?
The Activity was “inactive”.

And the EC50 [15]?
The EC50 was 346 nM.

And the Activity (Mus musculus [37])?
The Activity was “inactive”.

What about the Time (Mus musculus [38]) of the same compound?
Its Time is 360 min.

What about the MPE (Mus musculus [39]) of the same compound?
Its MPE is 72.8%.

And the half-life at 10000 µM [17]?
The half-life at 10000 µM was 2.98 h.

And the Activity (Mus musculus [40])?
The Activity was “inactive”.

What about the Time (Mus musculus [41]) of the same compound?
Its Time is “<=360 min”.
